The values below come from patent US10933056B2, “3-(1H-pyrazol-4-yl)pyridine allosteric modulators of the M4 muscarinic acetylcholine receptor” (Merck Sharp & Dohme Corp., priority 2015, dated 2021).

The target in this test is T1, human M4 muscarinic acetylcholine receptor (Homo sapiens, UniProt P08173).
T1 construct: expressed in transfected cells; host or cells: CHO-K1
T1 sequence (P08173 1-479): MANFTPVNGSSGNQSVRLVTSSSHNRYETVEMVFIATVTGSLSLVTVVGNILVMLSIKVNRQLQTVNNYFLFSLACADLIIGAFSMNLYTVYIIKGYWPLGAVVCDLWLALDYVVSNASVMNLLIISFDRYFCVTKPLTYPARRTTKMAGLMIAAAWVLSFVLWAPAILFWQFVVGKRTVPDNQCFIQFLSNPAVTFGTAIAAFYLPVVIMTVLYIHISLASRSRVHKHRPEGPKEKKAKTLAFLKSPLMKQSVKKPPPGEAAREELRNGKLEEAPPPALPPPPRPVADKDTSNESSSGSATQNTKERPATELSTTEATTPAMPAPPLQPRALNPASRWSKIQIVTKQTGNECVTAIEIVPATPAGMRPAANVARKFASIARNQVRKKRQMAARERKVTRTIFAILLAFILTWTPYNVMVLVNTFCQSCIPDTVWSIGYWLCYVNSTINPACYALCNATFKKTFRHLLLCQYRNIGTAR
The test can be described thus: human FLIPR-based M4 PAM assay (calcium mobilization in CHO-K1 cells with human M4 receptor and Gαqi5). The format is cell-based. Particulars: inflection point of dose response curve, acetylcholine at 20% of maximum response, FLIPR Tetra, read-out: M4 PAM IP. An outline of the steps:
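CHO-K1 cells stably expressing human M4 and chimeric Gαqi5 were dye-loaded ~1 h at 37° C. Test compound was added with fluorescence recorded 4 min, then acetylcholine at EC20 (sometimes a further EC70 addition) with reading 3.5 min. Value is the inflection point of a 4-parameter logistic fit.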
A general note: Calcium flux is commonly read through the fluorescence of an indicator in the cells.
In the case of `N#Cc1ccc(-c2cnn(CC3CCCC3)c2)c(-c2ccc3c(c2)C(=O)N(C2CC2)C3)n1` [Example 19, 5-(1-(cyclopentylmethyl)-1H-pyrazol-4-yl)-6-(2-cyclopropyl-3-oxoisoindolin-5-yl)picolinonitrile], the EC50 came out at 0.009 µM. For `CN1C(=O)c2cc(-c3nc(C#N)ccc3-c3cnn(CC4(C)CCCC4)c3)ccc2C1(C)C` [Example 72], the EC50 was 0.041 µM. As to `Cc1cc(-c2cnn(CC3(C)CCCC3)c2)c(-c2ccc3c(c2)C(=O)N(C)C3)nc1C(N)=O` [Example 113, 3-Methyl-6-(2-methyl-3-oxoisoindolin-5-yl)-5-(1-((1-methylcyclopentyl)methyl)-1H-pyrazol-4-yl)picolinamide], the EC50 turned out to be 0.069 µM.

For `N#Cc1ccc(-c2cnn(CC3CCCC3)c2)c(-c2ccc3c(c2)C(=O)NC3)n1` [Example 20, 5-(1-(cyclopentylmethyl)-1H-pyrazol-4-yl)-6-(3-oxoisoindolin-5-yl)picolinonitrile], the EC50 is 0.009 µM. As for `Cc1cc(-c2cnn(CC3(C)CCCC3)c2)c(-c2ccc3c(c2)C(=O)N(C)C3)nc1C#N` [Example 111, 3-Methyl-6-(2-methyl-3-oxoisoindolin-5-yl)-5-(1-((1-methylcyclopentyl)methyl)-1H-pyrazol-4-yl)picolinonitrile], the EC50 came to 0.035 µM. Regarding `Cc1ccc(-c2cnn(CC3(C)CCCC3)c2)c(-c2ccc3c(c2)C(=O)N(C2CC2)C3)n1` [Example 28, 2-cyclopropyl-6-(6-methyl-3-(1-((1-methylcyclopentyl)methyl)-1H-pyrazol-4-yl)pyridin-2-yl)isoindolin-1-one], the EC50 is 0.01 µM. Turning to `CN1Cc2ccc(-c3nc(C#N)c(Cl)cc3-c3cnn(CC4(C)CCCC4)c3)cc2C1=O` [Example 78, 3-chloro-6-(2-methyl-3-oxoisoindolin-5-yl)-5-(1-((1-methylcyclopentyl)methyl)-1H-pyrazol-4-yl)picolinonitrile], the EC50 is 0.032 µM. For `CNC(=O)c1ccc(-c2cnn(CC3CCCC3)c2)c(-c2ccc3c(c2)C(=O)N(C)C3)n1` [Example 14, 5-(1-(cyclopentylmethyl)-1H-pyrazol-4-yl)-N-methyl-6-(2-methyl-3-oxoisoindolin-5-yl)picolinamide] the value was 0.687 µM; for `CN1Cc2ccc(-c3nc(CF)c(F)cc3-c3cnn(CC4(C)CCCC4)c3)cc2C1=O` [Example 115, 6-(5-fluoro-6-(fluoromethyl)-3-(1-((1-methylcyclo-pentyl)-methyl)-1H-pyrazol-4-yl)pyridin-2-yl)-2-methylisoindolin-1-one], 0.047 µM; for `CC1(Cn2cc(-c3cc4c(nc3-c3cnc5c(c3)C(=O)N(CCF)C5)CCC4)cn2)CCCC1` [Example 118A, 6-(2-fluoroethyl)-3-(3-(1-((1-methylcyclopentyl)methyl)-1H-pyrazol-4-yl)-6,7-dihydro-5H-cyclopenta[b]pyridin-2-yl)-6,7-dihydro-5H-pyrrolo[3,4-b]pyridin-5-one], 0.05 µM. For the compound `CN1Cc2ncc(-c3nc4c(cc3-c3cnn(CC5(C)CCCC5)c3)CCC4)cc2C1=O` [Example 61, 6-methyl-3-(3-(1-((1-methylcyclopentyl)methyl)-1H-pyrazol-4-yl)-6,7-dihydro-5H-cyclopenta[b]pyridin-2-yl)-6,7-dihydro-5H-pyrrolo[3,4-b]pyridin-5-one], the EC50 is 0.059 µM. With `CC1(Cn2cc(-c3cc4c(nc3-c3cnc5c(c3)C(=O)NC5)[C@H](F)CC4)cn2)CCCC1` [Example 39A, (R)-3-(7-fluoro-3-(1-((1-methylcyclopentyl)methyl)-1H-pyrazol-4-yl)-6,7-dihydro-5H-cyclopenta[b]pyridin-2-yl)-6,7-dihydro-5H-pyrrolo[3,4-b]pyridin-5-one], the EC50 was found to be 0.058 µM. Take `CC1(Cn2cc(-c3ccc(C#N)nc3-c3cnc4c(c3)C(=O)N(CCF)C4)cn2)CCCC1` [Example 103, 6-(6-(2-fluoroethyl)-5-oxo-6,7-dihydro-5H-pyrrolo[3,4-b]pyridin-3-yl)-5-(1-((1-methylcyclopentyl)methyl)-1H-pyrazol-4-yl)picolinonitrile]: the EC50 was determined as 0.033 µM. `N#CC1(N2Cc3ccc(-c4ncccc4-c4cnn(CC5CCCC5)c4)cc3C2=O)CC1` [Example 87, 1-(6-(3-(1-(cyclopentylmethyl)-1H-pyrazol-4-yl)pyridin-2-yl)-1-oxoisoindolin-2-yl)cyclopropane-1-carbonitrile]: the EC50 came out at 0.319 µM. In the case of `Cc1cc(-c2cnn(CC3(C)CCCC3)c2)c(-c2ccc3c(c2)C(=O)N(C)C3)nc1CO` [Example 77, 6-(6-(hydroxymethyl)-5-methyl-3-(1-((1-methylcyclopentyl)methyl)-1H-pyrazol-4-yl)pyridin-2-yl)-2-methylisoindolin-1-one], the EC50 was 0.085 µM. For `CN1C(=O)c2cc(-c3nc4c(cc3-c3cnn(CC5(C)CCCC5)c3)CCC4)cnc2C1(C)C` [Example 71, 6,7,7-trimethyl-3-(3-(1-((1-methylcyclopentyl)methyl)-1H-pyrazol-4-yl)-6,7-dihydro-5H-cyclopenta[b]pyridin-2-yl)-6,7-dihydro-5H-pyrrolo[3,4-b]pyridin-5-one], the EC50 amounted to 0.035 µM. As for `CC1(Cn2cc(-c3cc(F)c(C#N)nc3-c3ccc4c(c3)C(=O)N(CC3CC3)C4)cn2)CCCC1` [Example 48, 6-(2-(cyclopropylmethyl)-3-oxoisoindolin-5-yl)-3-fluoro-5-(1-((1-methylcyclopentyl)methyl)-1H-pyrazol-4-yl)picolinonitrile], the EC50 was 0.076 µM. As to `NC(=O)c1ccc(-c2cnn(CC3CCCC3)c2)c(-c2ccc3c(c2)C(=O)N(CC2CC2)C3)n1` [Example 15, 5-(1-(cyclopentylmethyl)-1H-pyrazol-4-yl)-6-(2-(cyclopropylmethyl)-3-oxoisoindolin-5-yl)picolinamide], the EC50 came to 0.094 µM. The figure for `CC1(Cn2cc(-c3ccc(C(N)=O)nc3-c3ccc4c(c3)C(=O)NC4)cn2)CCCC1` [Example 113A, 5-(1-((1-methylcyclopentyl)methyl)-1H-pyrazol-4-yl)-6-(3-oxoisoindolin-5-yl)picolinamide] is 0.205 µM; for `CN1Cc2ccc(-c3nc(CF)ccc3-c3cnn(CC4(C)CCCC4)c3F)cc2C1=O` [Example 68, 6-(3-(5-fluoro-1-((1-methylcyclopentyl)methyl)-1H-pyrazol-4-yl)-6-(fluoromethyl)pyridin-2-yl)-2-methylisoindolin-1-one] it is 0.023 µM. For `CC1(Cn2cc(-c3ccc(C#N)nc3-c3ccc4c(c3)C(=O)N(CCF)C4)cn2)CCCC1` [Example 42, 6-(2-(2-fluoroethyl)-3-oxoisoindolin-5-yl)-5-(1-((1-methylcyclopentyl)methyl)-1H-pyrazol-4-yl)picolinonitrile], the EC50 amounted to 0.037 µM. `CN1Cc2ccc(-c3nc4c(cc3-c3cnn(CC5(C)CCCC5)c3)CCC4)cc2C1=O` [Example 39, 2-methyl-6-(3-(1-((1-methylcyclopentyl)methyl)-1H-pyrazol-4-yl)-6,7-dihydro-5H-cyclopenta[b]pyridin-2-yl)isoindolin-1-one]: the EC50 was 0.037 µM.

On to `Cc1cc(-c2cnn(CC3(C)CCCC3)c2)c(-c2ccc3c(c2)C(=O)N(C)C3)nc1F` [Example 53, 6-(6-fluoro-5-methyl-3-(1-((1-methylcyclopentyl)methyl)-1H-pyrazol-4-yl)pyridin-2-yl)-2-methylisoindolin-1-one], for which the EC50 was found to be 0.061 µM. As to `CC1(Cn2ncc(-c3ccc(C#N)nc3-c3ccc4c(c3)C(=O)NC4)c2F)CCCC1` [Example 43A, 5-(5-fluoro-1-((1-methylcyclopentyl)methyl)-1H-pyrazol-4-yl)-6-(3-oxoisoindolin-5-yl)picolinonitrile], the EC50 is 0.026 µM. Take `CC1(Cn2cc(-c3ccc(C#N)nc3-c3cnc4c(c3)C(=O)N(CCO)C4)cn2)CCCC1` [Example 129, 6-(6-(2-Hydroxyethyl)-5-oxo-6,7-dihydro-5H-pyrrolo[3,4-b]pyridin-3-yl)-5-(1-((1-methylcyclopentyl)methyl)-1H-pyrazol-4-yl)picolinonitrile]: the EC50 amounted to 0.039 µM. `CN1Cc2ccc(-c3nccc(C#N)c3-c3cnn(CC4(C)CCCC4)c3)cc2C1=O` [Example 31, 2-(2-methyl-3-oxoisoindolin-5-yl)-3-(1-((1-methylcyclopentyl)methyl)-1H-pyrazol-4-yl)isonicotinonitrile]: the EC50 is 0.074 µM. With `CC1(Cn2cc(-c3ccc(F)nc3-c3ccc4c(c3)C(=O)NC4)cn2)CCCC1` [Example 37, 6-(6-fluoro-3-(1-((1-methylcyclopentyl)methyl)-1H-pyrazol-4-yl)pyridin-2-yl)isoindolin-1-one], the EC50 came out at 0.007 µM.

Turning to `Cc1ccc(-c2cnn(CC3CCCC3)c2)c(-c2ccc3c(c2)C(=O)N(CCc2ccccc2)C3)n1` [Example 4, 6-(3-(1-(cyclopentylmethyl)-1H-pyrazol-4-yl)-6-methylpyridin-2-yl)-2-phenethylisoindolin-1-one], the EC50 is 0.037 µM. Consider `CN1Cc2ncc(-c3nc(F)ccc3-c3cnn(CC4(C)CCCC4)c3F)cc2C1=O` [Example 59, 3-(6-fluoro-3-(5-fluoro-1-((1-methylcyclopentyl)methyl)-1H-pyrazol-4-yl)pyridin-2-yl)-6-methyl-6,7-dihydro-5H-pyrrolo[3,4-b]pyridin-5-one], for which the EC50 was 0.014 µM.
